“And” between values parts separate entries of the source, which are not always exact repeats. Equal entries are not always repeated.
How the values were obtained:
[1] = system: Botrytis cinerea; assay: in vitro-Test with Botrytis cinerea (microtiter growth inhibition); assay type: cell-based
Procedure: (§1) The degree of efficacy expressed in % is denoted: 0% means an efficacy, which corresponds to that of the control, while an efficacy of 100% means that no disease is observed.
(§2) If the actual fungicidal activity exceeds the calculated value, then the activity of the combination is super-additive, i.e. a synergistic effect exists. In this case, the efficacy, which was actually observed, must be greater than the value for the expected efficacy (E), that was calculated from the abovementioned formula.
(§3) Example: In Vitro-Test with Fungal Microorganisms
(§4) Wells of 96-well microtiter plates are filled with 10 μl of a preparation of test compound or compound combination in methanol+emulsifier alkylaryl-polyglycol-ether. Thereafter, the solvent is evaporated in a hood. At the next step, 100 μl of liquid potato dextrose medium is given into each well, that has been amended with an appropriate concentration of spores or mycelium suspension of the test fungus.
(§5) With the aid of a photometer, the extinction in all wells is measured at the wavelength of 620 nm.
(§6) The microtiter plates are incubated at 20° C. and 85% relative humidity. The inhibition of growth is determined again photometrically 3-5 days after the application. Efficacy is calculated in relation to the untreated control, 0% efficacy means fungal growth as high as in untreated control while 100% efficacy means no fungal growth is measured.

[2] = system: Parastagonospora nodorum; assay: in vitro-Test with Parastagonospora nodorum (microtiter growth inhibition); assay type: cell-based; settings: compound alone
Procedure: as §1, §2, §3, §4, §5, §6

[3] = system: Diaporthe citri; assay: in vitro-Test with Diaporthe citri (microtiter growth inhibition); assay type: cell-based; settings: applied alone
Procedure: as §2, §3, §4, §5, §6

[4] = system: Alternaria alternate; assay: in vitro-Test with Alternaria alternate (microtiter growth inhibition); assay type: cell-based; settings: applied alone
Procedure: as §1, §2, §3, §4, §5, §6

[5] = Measurement of Log P values by HPLC on reversed phase columns (EEC directive 79/831 Annex V.A8), methods [a], [b], [c]; assay type: physicochemical
Procedure: Measurement of Log P values as provided herein was performed according to EEC directive 79/831 Annex V.A8 by HPLC (High Performance Liquid Chromatography) on reversed phase columns with the following methods: • ^[a]

[6] = Parastagonospora nodorum, read-out: Efficacy %
[7] = Parastagonospora nodorum, 20 ppm, read-out: Efficacy %

In the case of `Cc1ccc(C(F)(F)CNC(=O)c2c(Oc3cccc(C4CC4)c3F)nnc(Cl)c2C)c(C)c1` [(1-655)], the Efficacy % ([1]; single active at 0.004 ppm) is reported as 0%, the Efficacy % ([1]; single active at 0.020 ppm) is reported as 0% and the Efficacy % ([1]; single active at 0.1 ppm) is reported as 58%. For the same compound, the Efficacy % ([1]; single active at 0.5 ppm) was 100%.
`Cc1ccc(C(F)(F)CNC(=O)c2c(Oc3cccc(C4CC4)c3F)nnc(Cl)c2C)c(Cl)c1` [(1-746)] showed an Efficacy % ([1]; single active at 0.004 ppm) of 0%, an Efficacy % ([1]; single active at 0.020 ppm) of 0% and an Efficacy % ([1]; single active at 0.1 ppm) of 38%. The Efficacy % ([1]; single active at 0.5 ppm) was 100%.
With `Cc1ccc(C(F)(F)CNC(=O)c2c(Oc3cccc(C4CC4)c3F)nnc(Cl)c2C)cc1C` [(1-749)] the Efficacy % ([1]; single active at 0.004 ppm) was 0%, the Efficacy % ([1]; single active at 0.020 ppm) was 0% and the Efficacy % ([1]; single active at 0.1 ppm) was 45%. It also gave an Efficacy % ([1]; single active at 0.5 ppm) of 99%.
`CCCN(CC)CC1COC2(CCC(C(C)(C)C)CC2)O1` (centres unmarked) [(1.020) spiroxamine] gave an inhibition of growth at 0.8 ppm [2, 6] of 6%, an inhibition of growth at 4 ppm [2, 6] of 0% and an inhibition of growth at 20 ppm [2, 7] of 0%. It also gave an inhibition of growth at 20 ppm ([1]; Botrytis cinerea, single active at 20 ppm, read-out: Efficacy %) of 15%.
With `Cn1cc(C(=O)Nc2ccc(F)cc2-c2ccc(Cl)c(Cl)c2)c(C(F)F)n1` [(2.002) bixafen] the Efficacy % ([2]; 0.04 ppm) was 3%, the Efficacy % ([1]; single active at 0.008 ppm) was 9% and the Efficacy % ([1]; single active at 0.04 ppm) was 42%. For the same compound, the Efficacy % ([1]; single active at 0.2 ppm) was 55% and 67% and the Efficacy % ([1]; single active at 1.0 ppm) was 67% and 73%.
Compound `C[C@@H]1CC(C)(C)c2c(F)ccc(NC(=O)c3cn(C)nc3C(F)F)c21` [(2.028) inpyrfluxam] has an Efficacy % ([2]; 0.008 ppm) of 0%, an Efficacy % ([2]; 0.04 ppm) of 23% and an Efficacy % ([2]; 0.2 ppm) of 33%. The Efficacy % ([2]; 1.0 ppm) was 33%, the Efficacy % ([1]; single active at 0.008 ppm) was 0% and the Efficacy % ([1]; single active at 0.04 ppm) was 48% and 55%. For the same compound, the Efficacy % ([1]; single active at 0.2 ppm) was 60% and 66% and the Efficacy % ([1]; single active at 1.0 ppm) was 63% and 91%.
With `O=C1C2CC=CCC2C(=O)N1SC(Cl)(Cl)Cl` (centres unmarked) [(5.003) captan] the inhibition of growth at 4 ppm [2, 6] was 54%, the inhibition of growth at 20 ppm [2, 7] was 100% and the inhibition of growth at 4 ppm ([1]; Botrytis cinerea, single active at 4 ppm, read-out: Efficacy %) was 20%.
`O=C1c2ccccc2C(=O)N1SC(Cl)(Cl)Cl` [(5.012) folpet] gave an inhibition of growth at 2 ppm ([2]; Parastagonospora nodorum, 2 ppm, read-out: Efficacy %) of 91%, an inhibition of growth at 10 ppm ([2]; Parastagonospora nodorum, 10 ppm, read-out: Efficacy %) of 100% and an inhibition of growth at 0.08 ppm ([1]; Botrytis cinerea, single active at 0.08 ppm, read-out: Efficacy %) of 0%. For the same compound, the inhibition of growth at 0.4 ppm ([1]; Botrytis cinerea, single active at 0.4 ppm, read-out: Efficacy %) was 2% and the Efficacy % ([1]; single active at 0.4 ppm) was 0%.
In the case of `Cc1cc(C)nc(Nc2ccccc2)n1` [(7.005) pyrimethanil], the inhibition of growth at 0.8 ppm [2, 6] is reported as 99%, the inhibition of growth at 4 ppm [2, 6] is reported as 100% and the Efficacy % ([2]; 20 ppm) is reported as 100%. It also gave an inhibition of growth at 0.8 ppm ([1]; Botrytis cinerea, single active at 0.8 ppm, read-out: Efficacy %) of 78%.
In the case of `CC1CC(C)(C)c2c(F)ccc(NC(=O)c3cn(C)nc3C(F)F)c21` (centres unmarked) [Compound 2.028, inpyrfluxam], the Efficacy ([3]; 0.008 ppm) is reported as 0% and 7%, the Efficacy ([3]; 0.04 ppm) is reported as 23% and the Efficacy ([3]; 0.2 ppm) is reported as 47% and 32%. For the same compound, the Efficacy ([3]; 1.0 ppm) was 92% and 94%, the Efficacy ([4]; 0.008 ppm) was 0% and the Efficacy ([4]; 0.04 ppm) was 57%. The Efficacy ([4]; 0.2 ppm) was 73% and the Efficacy ([4]; 1.0 ppm) was 79%.
In the case of `O=C(NCCc1ccc(C(F)F)cc1)c1cc(Cl)nnc1Oc1cccc(C(F)(F)F)c1` [I-309], the LogP ([5]; HPLC method [a]) is reported as 3.78^[a].
With `O=C(NCC(F)(F)c1ccc(Br)cc1Cl)c1cc(C2CC2)nnc1Oc1cccc(C(F)(F)F)c1` [I-312] the LogP ([5]; HPLC method [a]) was 4.79^[a];.
With `O=C(NCC(F)(F)c1ccc(Br)cc1Cl)c1cc(Cl)nnc1Oc1cccc(C(F)(F)F)c1F` [I-315] the LogP ([5]; HPLC method [a]) was 4.71^[a].
In the case of `Cc1ccc(C(F)(F)CNC(=O)c2cc(-c3ccncc3)nnc2Oc2cccc(C(F)(F)F)c2)c(C)c1` [I-316], the LogP ([5]; HPLC method [a]) is reported as 3.65^[a].
For `Cc1c(Cl)nnc(Oc2cccc(C(F)(F)F)c2)c1C(=O)NCC(F)(F)c1ccc(Cl)cc1Cl` [I-338], the LogP ([5]; HPLC method [a]) was 4.43^[a].
In the case of `Cc1ccc(CCNC(=O)c2cc(Cl)nnc2Oc2cccc(C(F)(F)F)c2)c(-c2nccn2C)c1` [I-341], the LogP ([5]; HPLC method [a]) is reported as 1.85^[a].
In the case of `O=C(NCC(F)(F)c1ccc(C2CC2)cc1Cl)c1cc(Cl)nnc1Oc1cccc(C(F)(F)F)c1` [I-360], the LogP ([5]; HPLC method [a]) is reported as 4.58^[a].
With `O=C(NCc1cncc2ccccc12)c1cc(Cl)nnc1Oc1cccc(C(F)(F)F)c1` [I-379] the LogP ([5]; HPLC method [a]) was 2.14^[a].
In the case of `Cc1cc(Br)ccc1C(F)(F)CNC(=O)c1cc(Cl)nnc1Oc1cccc(C(F)(F)F)c1` [I-404], the LogP ([5]; HPLC method [a]) is reported as 4.57^[a].
For `Cc1ccc(C(F)(F)CNC(=O)c2cc(C)nnc2Oc2cccc(C(F)(F)F)c2)c(C)c1` [I-411], the LogP ([5]; HPLC method [a]) was 4.00^[a].
With `O=C(NCC(F)(F)c1ccc(C(F)(F)F)cc1Cl)c1cc(Cl)nnc1Oc1cccc(C(F)(F)F)c1` [I-418] the LogP ([5]; HPLC method [a]) was 4.45^[a].
In the case of `CCSc1c(Cl)nnc(Oc2cccc(C(F)(F)F)c2)c1C(=O)NCC(F)(F)c1ccc(C)cc1C` [I-442], the LogP ([5]; method [a]) is reported as 4.87^[a].
In the case of `O=C(NCC(F)(F)c1ccc(Cl)cc1Br)c1cc(Cl)nnc1Oc1cccc(C(F)(F)F)c1` [I-478], the LogP ([5]; method [a]) is reported as 4.68^[a].
In the case of `COc1ccc(CCNC(=O)c2c(Oc3cccc(C(F)(F)F)c3)nnc(Cl)c2C)c(OC)c1` [I-500], the LogP ([5]; method [a]) is reported as 3.65^[a].
In the case of `Cc1ccc(C(F)(F)CNC(=O)c2cc(-c3cn[nH]c3)nnc2Oc2cccc(C(F)(F)F)c2)c(C)c1` [I-515], the LogP ([5]; method [a]) is reported as 3.65^[a].
For `Cc1cc(C(=O)NCCc2ccc(C(F)F)cn2)c(Oc2cccc(C(F)(F)F)c2)nn1` [I-525], the LogP ([5]; method [a]) was 2.57^[a];.
